The values below are quoted from earlier work in patent publication US20090023692A1, “COMPOSITIONS FOR INHIBITING AND PREVENTING VASCULAR OCCLUSION CONTAINING NUTRITIONAL SUPPLEMENTS” (NeursoSci, Inc., priority 2005, published 2009).

For the data set the following is noted: daily administration of low doses (approximately 80-100 mg), patients at risk for cardiovascular events.

In the case of `CC(=O)Oc1ccccc1C(=O)O` [aspirin, acetylsalicylic acid], the “reduction of second heart attacks, strokes, and cardiovascular deaths” value was “at least 25%”.
